Measured values as given in US6461997B1, “Triazole sulfones having herbicidal activity” (Monsanto Technology LLC, priority 1999, dated 2002).

Assays:
PANDI (fall panicum) = assay: Pre-emergence herbicidal activity, warm season; assay type: in vivo, Panicum dichotomiflorum; details: GR80 = lowest tested rate (300, 100, 30, 10 g/ha) with 80% or greater inhibition; approx. 14 days after treating; 30/21° C.
Summary of the method: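 Activity is expressed as the rate giving 80% inhibition, with 300, 100, 30 and 10 g/ha typically tested. An asterisk marks activity short of 80% at the top rate. Warm-season grasses were held at 30/21 °C; cool-season blackgrass and wild buckwheat at 18/13 °C; scoring at about 14 days.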

[1] = test system: VERPE (creeping speedwell); assay: Pre-emergence herbicidal activity, cool season; assay type: in vivo, Veronica persicaria; details: lowest tested rate with 80% or greater inhibition; rates 300, 100, 30, 10 g/ha; about 14 days
Summary of the method: (§1)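 GR80 values derive from percent inhibition relative to untreated plants, read roughly 14 days after sowing and pre-emergence soil-surface treatment (compound in 50:50 acetone/water; rates typically 10, 30, 100, 300 g/ha). Warm-season weeds grew at 30/21° C day/night, cool-season ones at 18/13° C; an asterisk marks activity without reaching 80% at the highest rate.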

[2] = test system: LAMPU (purple deadnettle); assay: Pre-emergence herbicidal activity, cool season; assay type: in vivo, Lamium purpureum; details: lowest tested rate with 80% or greater inhibition; rates 300, 100, 30, 10 g/ha; about 14 days
Summary of the method: as §1

DATST (jimsonweed) = assay: Pre-plant incorporated (PPI) herbicidal activity, warm season; assay type: in vivo, Datura stramonium; details: for Percent inhibition DATST: PPI application; for PPI activity (GR80) DATST: pre-plant incorporated, GR80 = lowest tested rate with 80% or greater inhibition, approx. 14 days after treating, 30/21° C.
Description: (§2) In another set of tests, the pre-plant incorporated (PPI) activity of compounds of this invention was evaluated on the same species as for the pre-emergence tests described above. In the PPI tests the following procedure, designed to simulate PPI application, was used.
(§3) A pre-prepared topsoil mixture (described above) was placed in a pot and compacted to a depth of 1.0 to 1.25 cm from the top of the pot. Seeds of each of several monocotyledonous and dicotyledonous annual plant species were placed on top of the soil. A sufficient quantity of soil to cover the seeds and level fill the pot was weighed into an open container. A known amount of the test compound was dissolved or suspended in an organic solvent and applied by spraying to this cover soil. The cover soil was thoroughly mixed to distribute the test compound throughout the cover soil, and was then applied as a cover layer over the seeds. Untreated soil was used as a cover layer for control pots. After treatment the plants were placed in a greenhouse where they received 0.64 cm of overhead irrigation. All subsequent watering consisted of a light overhead mist and/or subirrigation as needed for germination and growth. Tables 9 and 10 below relate to warm season plant species which were placed after pre-emergence treatment in a greenhouse with a 30/21° C. day/night temperature regime. Tables 11 and 12 below relates to cool season plant species placed after pre-emergence treatment in a greenhouse or growth chamber with an 18/13° C. day/night temperature regime. Only the compounds of Examples 1, 6, 8, 11, 13 and 15-20 were included in PPI tests.
(§4) Approximately 14 days after planting and treating, the plants were observed and herbicidal efficacy recorded as percent inhibition by comparison with untreated plants.

[3] = test system: CHEAL (common lambsquarters); assay: as above; assay type: in vivo, Chenopodium album; details: for Percent inhibition CHEAL: PPI application; for PPI activity (GR80) CHEAL: pre-plant incorporated, GR80 = lowest tested rate with 80% or greater inhibition, approx. 14 days after treating, 30/21° C.
Description: as §2, §3, §4

[4] = test system: VERPE (creeping speedwell); assay: Pre-plant incorporated (PPI) herbicidal activity, cool season; assay type: in vivo, Veronica persicaria; details: for PPI activity GR80, VERPE: pre-plant incorporated, lowest tested rate with 80% or greater inhibition, about 14 days; for Percent inhibition VERPE: weed, PPI application
Description: as §2, §3, §4

[5] = test system: AEGCY (jointed goatgrass); assay: Post-emergence herbicidal activity, cool season; assay type: in vivo, Aegilops cylindrica; details: abraded plants sprayed at 300, 100, 30 and 10 g/ha; about 14 days after treatment
Description: In another set of tests, the post-emergence activity of compounds of this invention was evaluated on the cool season species listed above. The following procedure was used.
A pre-prepared topsoil mixture (described above) was placed in a pot and compacted to a depth of 1.0 to 1.25 cm from the top of the pot. Seeds of each of several monocotyledonous and dicotyledonous annual plant species were placed on top of the soil. The seeds were covered with a mixture of 50% topsoil and 50% Rediearth™ in sufficient quantity to level-fill the pots. The pots were then placed on a greenhouse bench and subirrigated as needed.
When plants growing from the seeds had emerged and reached a suitable growth stage for post-emergence treatment, typically 9 to 14 days after planting, above-ground parts of the plants were subjected to a pre-treatment involving abrasion to create greater opportunity for foliar uptake of subsequently applied compounds. Abrasion was performed using garnet 200w particles applied with a Sears Craftsman hand-held sandblaster operated at approximately 850 kPa (50 psig) pressure.
A known amount of each test compound dissolved or suspended in an appropriate organic solvent was diluted with a 50:50 mix of acetone and water and applied to the plants by spraying with a standard spray nozzle in a spray volume of […] at a spray pressure of 511 kPa (30 psig). Only the compounds of Examples 1, 8-15 and 17-22 were included in post-emergence tests. Application rates for these compounds were 300, 100, 30 and 10 g/ha. Control plants were abraded but not sprayed.
After treatment the plants were placed in a greenhouse with an 18/13° C. day/night temperature regime and were subsequently watered as needed for growth. Approximately 14 days after treatment, the plants were observed and herbicidal efficacy recorded as percent inhibition by comparison with control plants. GR80 values were assigned for each compound as described above for the pre-emergence tests.

| SMILES | Pre-emergence activity (GR80) PANDI (PANDI (fall panicum)) | Pre-emergence activity GR80, VERPE [1] | Pre-emergence activity GR80, LAMPU [2] | Percent inhibition DATST (DATST (jimsonweed); 30 g/ha) | Percent inhibition DATST (DATST (jimsonweed); 100 g/ha) | Percent inhibition DATST (DATST (jimsonweed); 300 g/ha) | Percent inhibition DATST (DATST (jimsonweed); 900 g/ha) | PPI activity (GR80) DATST (DATST (jimsonweed)) | Percent inhibition CHEAL ([3]; 30 g/ha) | Percent inhibition CHEAL ([3]; 100 g/ha) | Percent inhibition CHEAL ([3]; 300 g/ha) | Percent inhibition CHEAL ([3]; 900 g/ha) | PPI activity (GR80) CHEAL [3] | PPI activity GR80, VERPE [4] | also measured |
| --- | --- | --- | --- | --- | --- | --- | --- | --- | --- | --- | --- | --- | --- | --- | --- |
| CCN(CC)C(=O)n1cnc(S(=O)(=O)C(F)(F)C(F)F)n1 [Example 16] | 100 g/ha | 100 g/ha | 100 g/ha | 0% | 20% | 70% | 100% | 100 g/ha | 100% | 100% | 100% | 100% | 30 g/ha | 100 g/ha | Percent inhibition DATST (DATST (jimsonweed); 10 g/ha): 0%; Percent inhibition CHEAL ([3]; 10 g/ha): 100%; Percent inhibition VERPE ([4]; 10 g/ha): 100%; Percent inhibition VERPE ([4]; 30 g/ha): 95%; Percent inhibition VERPE ([4]; 100 g/ha): 100%; Percent inhibition VERPE ([4]; 300 g/ha): 100%; Percent inhibition VERPE ([4]; 900 g/ha): 100% |
| CCN(CC)C(=O)n1cnc(S(=O)(=O)C(F)(F)C(F)(F)Br)n1 [Example 4] | 30 g/ha | 10 g/ha | 30 g/ha | 0% | 0% | 40% | 75% |  | 60% | 100% | 100% | 100% |  |  |  |
| CCN(CC)C(=O)n1cnc(S(=O)(=O)C(F)(F)Cl)n1 [Example 3] | 100 g/ha | 100 g/ha | 100 g/ha | 0% | 30% | 70% | 100% |  | 80% | 99% | 100% | 100% |  |  |  |
| CCN(CC)C(=O)n1cnc(S(=O)(=O)C(F)(F)C(=O)c2ccccc2)n1 [Example 6] | 300 g/ha | 300 g/ha | 100 g/ha |  |  |  |  | 300 g/ha |  |  |  |  | 100 g/ha | 100 g/ha |  |
| CCN(CC)C(=O)n1cnc(S(=O)(=O)C(F)(F)SC)n1 [Example 9] |  | 100 g/ha | 300 g/ha | 0% | 0% | 80% | 100% |  | 95% | 100% | 100% | 100% |  |  | Post-emergence activity GR80, AEGCY [5]: [empty] |
